System: carrageenan-induced hind paw edema
Experiment: Acute antiinflammatory activity, carrageenan-induced paw edema test
Type: in vivo, Male Sprague-Dawley rats
Settings: dosed 1 h before carrageenan, paw volume 3 h after carrageenan, rats
Method: Anti-Inflammatory: This activity was evaluated using a modification of the carrageenan-induced paw edema test described by C. A. Winter et al in Proc. Soc. […] This assay measures the ability of the test compound to antagonize local edema, a characteristic of the inflammatory response.
Acute antiinflammatory activity was evaluated using the carrageenan-inducedpaw edema test described by C. A. Winter, et al in Proc. Soc.
Male Sprague-Dawley rats were divided into groups of six rats each. […] One hour after dosing with the test compounds, the left hind paws were injected with a 0.1 ml carrageenan solution (1% in distilled water, sterilized) intraplantarly. Three hours after carrageenan injection the volume of the injected paws was redetermined. Group means were also determined and the drug effect was calculated as percent inhibition of the hind paw edema according to the following equation: [formula]

| Structure (SMILES) | % Inhibition (percent inhibition of the hind paw edema) (100 mg/kg) | % Inhibition (percent inhibition of the hind paw edema) (100 mg (so in the source)) |
| --- | --- | --- |
| CN1OCCC([P+](c2ccccc2)(c2ccccc2)c2ccccc2)C1=O (centres unmarked) [Example 1, (dihydro-N-methyl-2H-1,2-oxazin-3(4H)-oxo-4-yl)triphenylphosphonium bromide] | 62% |  |
| CC(=O)Oc1ccccc1C(=O)O [Aspirin] |  | 50% |
